Assays:
[1] = system: maximal electroshock-induced seizures (MES); assay: Maximal electroshock-induced seizures (MES) iv in mouse; assay type: in vivo; details: administered iv 10 min before the test, tonic hindlimb extensor response
Description: The ability of selected 2-methylpropanamide derivatives to block maximal electroshock-induced seizures (MES) was determined by the following procedure. Seizures were induced by application of current (50 mA, 60 pulses/sec, 0.8 msec pulse width, 1 sec duration, D.C.) using a Ugo Basile ECT device (model 7801). Mice were restrained by gripping the loose skin on their dorsal surface and saline-coated corneal electrodes were held lightly against the two cornea. […] A tonic seizure was defined as a hindlimb extension in excess of 90 degrees from plane of the body. The 2-methylpropanamides tested were administered iv to mice 10 min before the test procedure.

[2] = system: voltage-sensitive Na+ channels; assay: Electrophysiological assay: patch-clamp recordings of voltage-sensitive Na+ currents in acutely dissociated rat hippocampal neurons; assay type: cell-based
Description: Electrophysiological Assay
Cell preparation: Acute cultures of rat hippocamnpal neurons were prepared daily using a modification of procedures described previously (Kuo and Bean, Mol. Pharm. 46:716-725 (1994)). Briefly, hippocampi were isolated from 3-11 day old rat pup brains (Sprague-Dawley; Charles River) and were sectioned, by hand, into 0.5-1 mm thick transyerse slices (Whittemore and Koerner, Eur. J. Pharm. 192:435-438 (1991)). Slices were incubated for at least 30 min at room temperature (20-24° C.) in an oxygenated medium (124 mM NaCl, 3.3 mM KCl, 2.4 mM MgSO4, 2.5 mM CaCl2, 1.2 mM KH2PO4, 26 mM NaHCO3, pH=7.4) continuously bubbled with 5% CO2/95% O2. Prior to recording, 4-5 slices were transferred to an oxygenated dissociation medium (82 mM NaSO4, 30 mM K2SO4, 3 mM MgCl2, 2 mM HEPES, 26 mM NaHCO3, 0.001% phenol red, pH=7.4) containing 3 mg/mL protease XXIII (Sigma, St. Louis, Mo.) and incubated for 10-15 min at 37° C., while continuously bubbling with 5% CO2/95% O2. Enzymatic digestion was terminated by transferring the slices to dissociation medium without bicarbonate, supplemented with 1 mg/mL bovine serum albumin and 1 mg/mL trypsin inhibitor (Sigma, St. Louis, Mo.). Slices were then transferred to a 35 mm culture dish containing dissociation medium without bicarbonate, and triturized with a fire-polished glass Pasteur pipette to release single cells. […]
Patch-clamp recordings of voltage-sensitive Na^+ currents: Whole-cell voltage-clamp recordings were made using conventional patch-clamp technique (Hamill et al., Pfluegers Arch. 391:85-100 (1981)) with an Axopatch 200A amplifier (Axon Instruments, Foster City, Calif.). […] Currents were recorded at room temperature (22-25° C.), filtered at 5 kHz with 4-pole Bessel filter, digitized at 20-50-μs intervals, and stored using Digidata 1200 analog/digital interface with Pclamp6/Clampex software (Axon Instruments). […] The inhibitory potency of drugs was assessed by measuring reductions in the peak amplitude of […] currents induced by increasing concentrations of compounds tested. […]

Compound | iv MES activity (number protected/number screened) [1] | inhibition of voltage-gated Na+ currents ([2]; acutely dissociated rat hippocampal neurons) | effect on Na+ currents activated from a holding membrane voltage of −100 mV ([2]; concentrations between 0.1-10 μM, holding voltage −100 mV) | Kd ([2]; inactivated Na+ channels, acutely dissociated rat hippocampal neurons, read-out: apparent antagonist dissociation constant (Kd) for inactivated Na+ channels) | melting point
CC(C)(NCc1ccc(Oc2ccc(F)cc2F)cc1)C(N)=O [2,4-difluorophenoxy, 2-(4-(2,4-Difluorophenoxy)benzylamino)-2-methylpropanamide] | 8/8 |  |  |  | 
CC(C)(NCc1ccc(OCc2ccccc2F)cc1)C(N)=O [2-(4-(2-Fluorobenzyloxy)benzylamino)-2-methyl-propanamide] |  | dose-dependent inhibition | very little effect | ~1200 nM | 
CC(C)(NCc1ccc(Oc2ccc3c(c2)OCO3)cc1)C(N)=O [3,4-methylenedioxyphenoxy, 2-(4-(3,4-Methylenedioxyphenoxy)benzylamino)-2-methyl-propanamide] | 8/8 |  |  |  | 
CC(C)(NCc1ccc(Oc2ccc(F)cc2)cc1)C(N)=O [4-fluorophenoxy, 2-(4-(4-Fluorophenoxy)benzylamino)-2-methylpropanamide] | 8/8 |  |  |  | 103 to 106 °C
CC(C)(NCc1ccc(Oc2ccc3c(c2)CCC3)cc1)C(N)=O [Example 5-indanoxy, 2-(4-(5-Indanoxy)benzylamino)-2-methylpropanamide] | 1/8 |  |  |  | 81 to 83 °C

Source: patent US6500825B2, “Substituted 2-aminoacetamides and the use thereof” (Euro-Celtique S.A., priority 1997, dated 2002)
